Assay results published in article PMC7161706 (Acta Pharmaceutica Sinica. B, 2019).

Columns and labels:
GuC4H1 = target: T1, GuC4H1 (Glycyrrhiza uralensis, UniProt A0A6B7HXZ5); experiment: yeast feeding, product by HPLC-Q-TOF-MS; type: cell-based; conditions: 20 μmol/L fed, 30 °C, 12 h; ATR1 reductase in WAT11
T1 sequence (A0A6B7HXZ5 1-505): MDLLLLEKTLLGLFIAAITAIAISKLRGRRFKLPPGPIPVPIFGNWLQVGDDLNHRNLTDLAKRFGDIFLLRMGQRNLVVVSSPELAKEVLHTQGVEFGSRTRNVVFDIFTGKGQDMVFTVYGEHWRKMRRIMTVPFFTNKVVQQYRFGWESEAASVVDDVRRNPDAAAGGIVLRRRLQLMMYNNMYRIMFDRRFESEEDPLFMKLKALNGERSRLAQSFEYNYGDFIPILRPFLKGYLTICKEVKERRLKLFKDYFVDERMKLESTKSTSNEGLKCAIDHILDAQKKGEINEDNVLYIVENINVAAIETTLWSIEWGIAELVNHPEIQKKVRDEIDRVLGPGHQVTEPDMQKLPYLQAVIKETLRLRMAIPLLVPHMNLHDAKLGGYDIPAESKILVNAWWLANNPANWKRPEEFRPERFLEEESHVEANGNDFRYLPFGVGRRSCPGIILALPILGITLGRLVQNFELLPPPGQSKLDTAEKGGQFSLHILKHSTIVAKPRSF

GuPAL1 = GuPAL1 (Glycyrrhiza uralensis, UniProt A0A6B7HYR5); experiment: product by HPLC-Q-TOF-MS; type: biochemical; conditions: 1 mmol/L substrate, pH 8.0, 30 °C, 10 h
Sequence of GuPAL1 (A0A6B7HYR5 1-783 limits assumed): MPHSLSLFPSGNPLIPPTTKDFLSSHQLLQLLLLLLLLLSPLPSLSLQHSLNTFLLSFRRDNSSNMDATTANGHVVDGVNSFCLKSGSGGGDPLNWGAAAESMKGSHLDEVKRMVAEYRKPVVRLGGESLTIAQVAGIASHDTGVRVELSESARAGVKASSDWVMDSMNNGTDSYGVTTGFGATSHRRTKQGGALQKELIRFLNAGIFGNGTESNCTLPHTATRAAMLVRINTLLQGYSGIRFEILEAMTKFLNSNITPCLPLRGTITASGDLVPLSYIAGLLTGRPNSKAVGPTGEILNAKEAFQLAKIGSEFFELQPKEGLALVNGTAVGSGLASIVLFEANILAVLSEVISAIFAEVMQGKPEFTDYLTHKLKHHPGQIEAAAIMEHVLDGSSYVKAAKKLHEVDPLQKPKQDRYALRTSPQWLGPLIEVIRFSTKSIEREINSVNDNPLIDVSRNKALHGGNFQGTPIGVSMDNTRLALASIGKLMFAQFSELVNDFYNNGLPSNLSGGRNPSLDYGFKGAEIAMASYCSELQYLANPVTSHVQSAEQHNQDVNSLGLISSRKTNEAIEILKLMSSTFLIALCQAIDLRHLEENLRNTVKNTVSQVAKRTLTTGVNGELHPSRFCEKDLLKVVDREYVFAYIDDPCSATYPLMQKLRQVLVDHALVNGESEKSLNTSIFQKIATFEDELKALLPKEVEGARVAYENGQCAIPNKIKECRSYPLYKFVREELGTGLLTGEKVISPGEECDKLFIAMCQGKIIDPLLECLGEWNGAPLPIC

| Compound | yeast feeding, product by HPLC-Q-TOF-MS (p-coumaric acid) (GuC4H1) | product by HPLC-Q-TOF-MS (cinnamic acid) (GuPAL1) |
| --- | --- | --- |
| O=C(O)/C=C/c1ccccc1 [CiA, cinnamic acid] | GuC4H1 was able to produce p-coumaric acid upon feeding cinnamic acid and galactose | – |
| N[C@@H](Cc1ccccc1)C(=O)O [Phe, phenylalanine] | – | incubation of the staring substrate phenylalanine with GuPAL1 yielded cinnamic acid |
